Target: T1, mouse AhR (mAhr) (Mus musculus, UniProt P30561)
T1 construct: cytosolic protein from Hepa1c1c7 cells
T1 sequence (P30561 10-848): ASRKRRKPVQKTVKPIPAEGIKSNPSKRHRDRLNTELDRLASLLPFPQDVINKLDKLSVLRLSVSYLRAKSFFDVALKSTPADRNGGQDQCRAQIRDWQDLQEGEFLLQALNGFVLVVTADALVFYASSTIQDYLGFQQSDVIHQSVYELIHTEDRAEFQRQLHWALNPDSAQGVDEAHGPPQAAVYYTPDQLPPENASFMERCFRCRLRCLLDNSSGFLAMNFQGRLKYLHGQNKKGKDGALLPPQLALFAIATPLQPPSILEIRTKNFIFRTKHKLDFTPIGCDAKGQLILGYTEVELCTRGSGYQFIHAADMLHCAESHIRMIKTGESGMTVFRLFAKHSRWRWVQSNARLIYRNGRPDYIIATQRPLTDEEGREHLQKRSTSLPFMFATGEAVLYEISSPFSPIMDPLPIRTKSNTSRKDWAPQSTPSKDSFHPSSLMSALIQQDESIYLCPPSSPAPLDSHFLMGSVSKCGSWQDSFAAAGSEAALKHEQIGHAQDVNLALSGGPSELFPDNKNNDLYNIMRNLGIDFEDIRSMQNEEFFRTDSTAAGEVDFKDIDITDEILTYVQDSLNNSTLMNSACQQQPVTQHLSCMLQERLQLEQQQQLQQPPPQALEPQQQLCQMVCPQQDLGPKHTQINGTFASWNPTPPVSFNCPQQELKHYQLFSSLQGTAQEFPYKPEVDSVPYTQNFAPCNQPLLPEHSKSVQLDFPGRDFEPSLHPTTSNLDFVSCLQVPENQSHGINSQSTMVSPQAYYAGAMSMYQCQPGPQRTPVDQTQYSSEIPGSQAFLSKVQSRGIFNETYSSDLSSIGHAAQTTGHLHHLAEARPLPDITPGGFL
Assay: [3H]-TCDD competitive radioligand binding; partial displacement (about […]) at […]

IC50: > 609 µM
SMILES: CC/C=C\CC1=C(C)CCC1=O [jasmone, 3-methyl-2-[(2Z)-pent-2-en-1-yl]cyclopent-2-en-1-one]

Reference: article PMC10648586, “Jasmone Is a Ligand-Selective Allosteric Antagonist of Aryl Hydrocarbon Receptor (AhR)” (International Journal of Molecular Sciences, 2023)
